Test results published in patent publication US11541056B2, “3-hydroxy-N-(3-(7H-pyrrolo[2,3-d]pyrimidin-4-yl)phenyl)pyrrolidine-1-carboxamide derivatives” (NOVARTIS AG, priority 2018, dated 2023).

Assays:
Format in all cases: cell-based
BTK(C481S)-GFP = biological target: T1, BTK(C481S)-GFP (Homo sapiens, UniProt Q06187+Q96SW2, C481S); assay: BTK(C481S)-GFP protein abundance flow cytometry assay in TMD8 cells; details: for BTK (C481S) Amax %: % protein remaining at concentration of maximum degradation; for DC50: concentration at which 50% maximal degradation was observed
T1 construct: with a mutagenesis reaction on pENTR221-BTK (STOP-Leu); CHYSEL (cis-acting hydrolase element, 2A) remnant after GFP; mCherry is split off as a separate protein (C); expressed in transfected cells; host or cells: TMD8 cells, lentiviral transduction with pLenti6-BTK(C481S)-GFP-CHYSEL-mCherry
Method: Compounds of the invention were tested in the following cellular assays. The terms in Table 1 are defined as follows: DC50 refers to the concentration at which 50% maximal degradation was observed; deg Amax is the extent of degradation and the value refers to the % protein remaining at the concentration at which maximum degradation is seen; Prol GI50 refers to the proliferation data and defines the concentration at which 50% growth inhibition was observed compared to the vehicle treated control at the end of the incubation time. TMD8 cells are BTK dependent and OCI-LY3 cells are BTK independent.
BTK(C481S)-GFP Protein Abundance Flow Cytometry Assay in TMD8 Cells:
Degradation of BTK(C481S) was measured in TMD8 cells expressing BTK(C481S)-GFP and mCherry from a stably integrated second generation bicistronic BTK(C481S)-GFP-CHYSEL-mCherry construct. Reduction of the GFP signal measured by flow cytometry served as readout for BTK(C481S) degradation after degrader treatment.

TMD8 cells = assay: Resazurin cell viability assay in DLBCL cells (TMD8); details: Homo sapiens, TMD8, 72 h, TMD8 cells (BTK dependent), 50% growth inhibition, read-out: TMD8 Prol GI50
In short: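 Cells seeded at 1×10^4 per well in triplicate, treated 3 h later for 72 h with an 8-point 1:4 dilution series starting at 1 μM. Resazurin (13 μg/ml final) added for the last 2 h; resorufin fluorescence read at 530/600 nm. GI50 versus vehicle control, usually from ≥2 independent experiments.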

OCI-LY3 cells = assay: Resazurin cell viability assay in DLBCL cells (OCI-LY3); details: Homo sapiens, OCI-Ly3, 72 h, OCI-LY3 cells (BTK independent), 50% growth inhibition, read-out: OCI-LY3 Prol GI50
In short: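 BTK-independent OCI-LY3 cells were treated 72 h at 37° C/5% CO2 with an 8-point 1:4 series from 10 μM, in triplicate, versus DMSO. Viability was read by resazurin (13 μg/ml final, 2 h) fluorescence at 530/600 nm. GI50 was curve-fitted, typically from ≥2 independent experiments.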

T1 sequence (Q06187 whole entry C481S): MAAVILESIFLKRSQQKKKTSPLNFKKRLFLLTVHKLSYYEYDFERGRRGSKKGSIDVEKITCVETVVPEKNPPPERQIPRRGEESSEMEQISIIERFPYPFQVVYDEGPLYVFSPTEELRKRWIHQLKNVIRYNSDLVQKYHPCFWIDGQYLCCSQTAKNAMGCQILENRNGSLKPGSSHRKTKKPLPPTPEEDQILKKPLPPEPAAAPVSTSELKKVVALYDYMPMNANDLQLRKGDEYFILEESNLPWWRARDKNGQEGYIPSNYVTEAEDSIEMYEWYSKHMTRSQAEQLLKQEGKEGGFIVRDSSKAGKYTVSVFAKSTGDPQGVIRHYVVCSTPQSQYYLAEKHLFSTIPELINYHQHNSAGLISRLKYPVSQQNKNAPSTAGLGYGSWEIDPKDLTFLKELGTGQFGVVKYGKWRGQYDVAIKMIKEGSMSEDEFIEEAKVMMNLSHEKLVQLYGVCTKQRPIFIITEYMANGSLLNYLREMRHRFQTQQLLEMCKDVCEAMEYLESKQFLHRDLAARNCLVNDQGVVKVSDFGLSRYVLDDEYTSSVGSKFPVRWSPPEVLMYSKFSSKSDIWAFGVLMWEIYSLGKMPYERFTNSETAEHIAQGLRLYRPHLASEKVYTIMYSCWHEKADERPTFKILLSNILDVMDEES
T1 sequence (Q96SW2 whole entry): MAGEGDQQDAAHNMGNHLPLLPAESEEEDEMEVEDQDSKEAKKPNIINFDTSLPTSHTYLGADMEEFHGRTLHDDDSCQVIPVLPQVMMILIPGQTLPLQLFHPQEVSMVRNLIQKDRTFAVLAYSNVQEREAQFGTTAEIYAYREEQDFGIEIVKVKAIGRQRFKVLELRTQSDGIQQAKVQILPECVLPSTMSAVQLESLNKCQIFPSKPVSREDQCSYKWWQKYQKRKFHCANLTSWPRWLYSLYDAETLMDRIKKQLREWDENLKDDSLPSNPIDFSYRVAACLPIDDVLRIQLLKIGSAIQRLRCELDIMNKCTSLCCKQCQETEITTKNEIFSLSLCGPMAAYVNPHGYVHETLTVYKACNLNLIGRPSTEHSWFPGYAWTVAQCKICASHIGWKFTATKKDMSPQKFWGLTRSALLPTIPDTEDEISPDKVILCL
T1 sequence (Q16531 whole entry partner): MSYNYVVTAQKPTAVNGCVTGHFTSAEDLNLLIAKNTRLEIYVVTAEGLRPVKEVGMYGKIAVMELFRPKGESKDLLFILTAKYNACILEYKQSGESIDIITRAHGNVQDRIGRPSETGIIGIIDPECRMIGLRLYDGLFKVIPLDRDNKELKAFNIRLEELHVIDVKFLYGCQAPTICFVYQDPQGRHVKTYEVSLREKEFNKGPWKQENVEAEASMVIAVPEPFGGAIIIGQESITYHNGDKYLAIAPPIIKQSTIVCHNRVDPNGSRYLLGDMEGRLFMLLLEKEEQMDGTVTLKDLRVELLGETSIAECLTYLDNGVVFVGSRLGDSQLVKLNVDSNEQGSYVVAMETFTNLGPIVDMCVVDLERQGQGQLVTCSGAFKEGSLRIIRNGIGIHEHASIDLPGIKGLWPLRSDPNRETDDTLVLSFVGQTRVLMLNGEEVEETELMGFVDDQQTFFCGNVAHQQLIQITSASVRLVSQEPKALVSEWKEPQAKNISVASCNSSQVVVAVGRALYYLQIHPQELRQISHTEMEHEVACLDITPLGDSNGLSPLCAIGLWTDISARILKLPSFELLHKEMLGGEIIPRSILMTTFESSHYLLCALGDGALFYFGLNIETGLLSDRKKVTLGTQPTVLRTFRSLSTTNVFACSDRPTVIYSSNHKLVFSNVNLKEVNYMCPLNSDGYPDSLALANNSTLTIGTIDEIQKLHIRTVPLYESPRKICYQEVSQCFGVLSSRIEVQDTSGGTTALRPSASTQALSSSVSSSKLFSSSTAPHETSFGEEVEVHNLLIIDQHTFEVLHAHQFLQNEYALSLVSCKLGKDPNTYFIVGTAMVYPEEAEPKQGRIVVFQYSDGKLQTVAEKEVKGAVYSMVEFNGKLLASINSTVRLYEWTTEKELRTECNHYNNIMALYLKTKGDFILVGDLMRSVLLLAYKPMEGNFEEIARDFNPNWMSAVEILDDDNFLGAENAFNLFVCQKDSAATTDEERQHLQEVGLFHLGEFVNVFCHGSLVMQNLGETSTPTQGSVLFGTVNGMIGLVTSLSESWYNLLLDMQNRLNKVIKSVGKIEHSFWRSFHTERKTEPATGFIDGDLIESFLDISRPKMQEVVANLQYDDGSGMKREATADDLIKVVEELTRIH

BTK (C481S) Amax % (BTK(C481S)-GFP) [%]	DC50 (BTK(C481S)-GFP) [nM]	GI50 (OCI-LY3 cells) [nM]	Structure (SMILES)	GI50 (TMD8 cells) [nM]
2.9	16	> 10000	COc1ccc(C(=O)N2CCC3(CCN(CCc4ccc(-c5cc6c(-c7cc(F)cc(NC(=O)N8C[C@@H](CC(C)C)[C@H](O)C8)c7C)ncnc6[nH]5)cc4)CC3)CC2)cc1N1CCC(=O)NC1=O [Compound 19, (3S,4R)—N-(3-(6-(4-(2-(9-(3-(2,4-dioxotetrahydropyrimidin-1(2H)-yl)-4-methoxybenzoyl)-3,9-diazaspiro[5.5]undecan-3-yl)ethyl)phenyl)-7H-pyrrolo[2,3-d]pyrimidin-4-yl)-5-fluoro-2-methylphenyl)-3-hydroxy-4-isobutylpyrrolidine-1-carboxamide]	4.87
2.1	0.4	6680	COc1ccc(C(=O)N2CCC(CCN3CCC(OCc4ccc(-c5cc6c(-c7cc(F)cc(NC(=O)N8C[C@H](CC(C)C)[C@@H](O)C8)c7C)ncnc6[nH]5)cc4)CC3)CC2)cc1N1CCC(=O)NC1=O [Compound 22, (3R,4S)—N-(3-(6-(4-(((1-(2-(1-(3-(2,4-Dioxotetrahydropyrimidin-1 (2H)-yl)-4-methoxybenzoyl)piperidin-4-yl)ethyl)piperidin-4-yl)oxy)methyl)phenyl)-7H-pyrrolo[2,3-d]pyrimidin-4-yl)-5-fluoro-2-methylphenyl)-3-hydroxy-4-isobutylpyrrolidine-1-carboxamide]	0.23
